Results on three compounds are retold here after PMC6431521, “Synthesis and Evaluation of ^18F-Labeled Peptide for Gonadotropin-Releasing Hormone Receptor Imaging” (Contrast Media & Molecular Imaging, 2019).

This test addresses T1, human GnRH membrane preparations (GnRH receptor) (Homo sapiens, UniProt P30968).
T1 construct: purchased Millipore ChemiScreen HTS027M
T1 sequence (P30968 1-328): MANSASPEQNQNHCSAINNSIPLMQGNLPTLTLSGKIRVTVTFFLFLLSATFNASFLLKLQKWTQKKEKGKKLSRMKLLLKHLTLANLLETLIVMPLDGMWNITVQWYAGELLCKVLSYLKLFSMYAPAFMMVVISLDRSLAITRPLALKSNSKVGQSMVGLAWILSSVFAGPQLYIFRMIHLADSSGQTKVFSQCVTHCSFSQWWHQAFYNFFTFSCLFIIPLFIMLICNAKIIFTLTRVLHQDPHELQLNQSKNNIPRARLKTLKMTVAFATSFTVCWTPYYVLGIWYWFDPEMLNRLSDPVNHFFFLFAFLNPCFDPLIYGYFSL
As to the kind of experiment: In vitro competitive GnRH receptor binding assay. The settings on record: for IC50: competitive binding, Millipore ChemiScreen human GnRH membrane preparations, radioligand [131I](His5, D-Tyr6)GnRH, 10^-11 to 10^-5 M peptide, room temperature 1.5 h, pH 7.4, gamma counter, n=3, read-out: GnRH receptor binding affinity IC50. Here is the method:
GnRH membrane preparations were obtained from Millipore ChemiScreen (HTS027M). The GnRH receptor binding affinities (IC50 values) of FP-D-Lys^6-GnRH, D-Lys^6-GnRH, and NOTA-P-D-Lys^6-GnRH were determined by in vitro competitive binding assay according to the manufacturer's protocol. In brief, 5 μL of Millipore ChemiScreen human GnRH membrane preparations was incubated at room temperature for 1.5 h with approximately 20,000 counts per minute (cpm) of [^131I](His^5, D-Tyr^6)GnRH in the presence of 10^−11 to 10^−5 M of each peptide in 95 μL of binding buffer (50 mM HEPES, 5 mM MgCl2, 1 mM CaCl2, 0.2% BSA, buffer to pH 7.4 using 1 M NaOH). After the incubation, 600 μL of ice-cold washing buffer (50 mM HEPES, 500 mM NaCl, 0.1% BSA, buffer to pH 7.4 using 1 M NaOH) was added to each mixture. Each resulting mixture was filtered through a GF/C filter (Whatman, Clifton, NJ) presoaked in 0.33% polyethylenimine. Each filter was rinsed with 1 mL of ice-cold wash buffer six times. The activities on the filters were measured in a gamma counter (γ-counter).
The GnRH receptor affinities for FP-D-Lys^6-GnRH, D-Lys^6-GnRH, and NOTA-P-D-Lys^6-GnRH were determined using human GnRH membrane preparations and [^131I](His^5, D-Tyr^6)GnRH as the radioligand.

The mark [1] stands for this setting: ratio of IC50 values, GnRH receptor binding.

A word on the IC50: it is the concentration at which inhibition is half-maximal.

For `CC(C)C[C@H](NC(=O)[C@@H](CCCCNC(=O)CCOCCOCCOCCNC(=O)CN1CCN(CC(=O)O)CCN(CC(=O)O)CC1)NC(=O)[C@H](Cc1ccc(O)cc1)NC(=O)[C@H](CO)NC(=O)[C@H](Cc1c[nH]c2ccccc12)NC(=O)[C@H](Cc1c[nH]cn1)NC(=O)[C@@H]1CCC(=O)N1)C(=O)N[C@@H](CCCNC(=N)N)C(=O)N1CCC[C@H]1C(=O)NCC(N)=O` [NOTA-P-D-Lys^6-GnRH], the “Decrease of GnRH receptor binding affinity versus D-Lys6-GnRH” value under setting [1] is given as “approximately 4 fold”. `CC(C)C[C@H](NC(=O)[C@@H](CCCCN)NC(=O)[C@H](Cc1ccc(O)cc1)NC(=O)[C@H](CO)NC(=O)[C@H](Cc1c[nH]c2ccccc12)NC(=O)[C@H](Cc1cnc[nH]1)NC(=O)[C@@H]1CCC(=O)N1)C(=O)N[C@@H](CCCNC(=N)N)C(=O)N1CCC[C@H]1C(=O)NCC(N)=O` [D-Lys^6-GnRH, reference compound]: the IC50 was determined as 15.8 nM. In the case of `CC(C)C[C@H](NC(=O)[C@@H](CCCCNC(=O)C(C)F)NC(=O)[C@H](Cc1ccc(O)cc1)NC(=O)[C@H](CO)NC(=O)[C@H](Cc1c[nH]c2ccccc12)NC(=O)[C@H](Cc1c[nH]cn1)NC(=O)[C@@H]1CCC(=O)N1)C(=O)N[C@@H](CCCNC(=N)N)C(=O)N1CCC[C@H]1C(=O)NCC(N)=O` (stereo partly drawn) [FP-D-Lys^6-GnRH], the IC50 came to 2 nM. The “Potency higher than the reference D-Lys6-GnRH” value under setting [1] is on record as “approximately 8 fold”.
